Results taken from publication PMC8791944, “GLUT3 inhibitor discovery through in silico ligand screening and in vivo validation in eukaryotic expression systems” (Scientific Reports, 2022).
Where two headings read alike, the source gives them in different places.

Target: T1, GLUT2∆loopS_Q455R (Homo sapiens, UniProt P11168, Q455R, form not given)
T1 sequence (P11168 1-524 Q455R): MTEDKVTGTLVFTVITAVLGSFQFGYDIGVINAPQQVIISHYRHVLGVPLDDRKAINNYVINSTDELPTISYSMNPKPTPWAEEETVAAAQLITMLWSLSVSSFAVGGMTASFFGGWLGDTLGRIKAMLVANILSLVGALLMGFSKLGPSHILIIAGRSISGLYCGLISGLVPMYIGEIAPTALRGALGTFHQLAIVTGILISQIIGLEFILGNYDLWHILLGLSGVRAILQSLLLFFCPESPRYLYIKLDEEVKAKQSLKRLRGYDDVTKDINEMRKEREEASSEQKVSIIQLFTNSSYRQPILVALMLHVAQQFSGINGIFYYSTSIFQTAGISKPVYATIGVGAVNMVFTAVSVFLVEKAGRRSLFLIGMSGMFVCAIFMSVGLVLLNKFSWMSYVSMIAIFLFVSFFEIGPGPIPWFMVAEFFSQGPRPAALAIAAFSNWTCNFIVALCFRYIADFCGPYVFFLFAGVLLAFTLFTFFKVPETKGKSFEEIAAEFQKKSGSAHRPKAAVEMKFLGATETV
Test: Glucose transport assay, GLUT2∆loopS_Q455R expressed in hxt^0 yeast cells EBY.S7
Type: cell-based
Source text: The most studied GLUTs are Class 1 GLUTs (GLUT1-4) and a Class 2 GLUT, GLUT5 (a fructose-only transporter). GLUT3 sequence homology and identity is 79% and 64%, 71% and 52%, 74% and 57%, and 60% and 38% with GLUT1, GLUT2, GLUT4, and GLUT5, respectively. The hxt^0 yeast cell systems expressing functional GLUT1-4[65],[69] and GLUT5[66] allow us to determine the in vivo transport activity (substrate uptake by a GLUT into whole cells) for individual GLUTs and establish GLUT3 inhibitor selectivity for these transporters. The transport assay was performed as described for GLUT3, but at the substrate concentrations that correspond to the KM for each GLUT (i.e., 5 mM glucose for GLUT1 and GLUT4[65], 15 mM glucose for GLUT2∆loopS_Q455R[63], and 10 mM fructose for GLUT5S72Y[66]).
The transport activity was assayed as the substrate uptake in hexose transporter-deficient yeast cells expressing functional GLUT1[65], GLUT2[69], GLUT4[65], or GLUT5[66]. Substrate final concentration in the assay matched the corresponding substrate KM and was 5 mM glucose for GLUT1 and GLUT4, 15 mM glucose for GLUT2∆loopS_Q455R, and 10 mM fructose for GLUT5S72Y. Transport assay was initiated by the addition of C^14-labeled substrate and stopped after 10 min (see “Materials and methods” for details). […] Standard deviations for experimental points come from at least three independent measurements.
The plasmids containing functional constructs of GLUT1-5 were transformed in the corresponding hxt^0 strains[65],[66],[73] (EBY.VW4000 for GLUT5S72Y, EBY.S7 for GLUT1, GLUT2∆loopS_Q455R, GLUT3 and GLUT3S66Y, and SDY.022 for GLUT4) and grown on 2% (w/v) agar plates of the respective media supplemented with 1% (w/v) maltose. An initial culture of ~ 10 ml was started with a few colonies and grown for 2–3 days if the media was SC-uracil with 1% (w/v) maltose (GLUT1, GLUT3, GLUT4) or 1–2 days if the media was YEP with 1% (w/v) maltose and 100 µg/ml geneticin G418 (GLUT2∆loopS_Q455R and GLUT5S72Y). Cells were washed once in the corresponding media in which maltose was substituted with 0.1–2% hexose substrate for the expressing GLUT (i.e., SC-uracil, 2% (w/v) glucose for GLUT1; SC-uracil, 0.2% (w/v/) glucose for GLUT3 and GLUT4; YEP, 0.2% (w/v) glucose, 100 µg/ml geneticin G418 for GLUT2∆loopS_Q455R, and YEP, 2% (w/v) fructose for GLUT5 S72Y). Then, cells were transferred in the same media so that OD600nm ~ 0.5 and grown further for 1–2 days.
For transport activity assay, cells in the hexose media were centrifuged (1000×g, 5 min, room temperature), washed once with PBS buffer (10 mM Na2HPO4, 1.8 mM KH2PO4, 2.7 mM KCl, 137 mM NaCl, pH 7.4), and resuspended in PBS buffer at an OD600nm ~ 10; each assay contained 100 µl of this cell solution. Transport activity assay was started by adding C^14-hexose at a substrate concentration corresponding to the respective KM (5 mM glucose for GLUT1 or GLUT4, 3 mM glucose for GLUT3 or 1.5 mM glucose for GLUT3S66Y, 15 mM glucose for GLUT2∆loopS_Q455R, and 10 mM fructose for GLUT5S72Y); for determining the glucose KM in GLUT3 and GLUT3S66Y, substrate concentrations were varied accordingly. […] The filtration membranes were transferred into scintillation vials with 10 ml of Scintillation Solution (BioSafeII; Research Products International, Mount Prospect, IL, USA), and vortexed briefly. The radioactivity was determined with a scintillation counter (Tri-carb 2900TR, Perkin Elmer, USA).

[1] = GLUT2∆loopS_Q455R in hxt^0 yeast cells, 15 mM glucose; read-out: IC50 for GLUT2 transport inhibition

SMILES | IC50 (read-out: IC50 for GLUT2 transport inhibition; GLUT2∆loopS_Q455R in hxt^0 yeast cells, 15 mM glucose) [µM] | IC50 [1] [µM] | Potency for GLUT2 relative to GLUT3 (IC50 ratio, weaker for GLUT2) (IC50 GLUT2 versus IC50 GLUT3)
COc1ccccc1-n1c(/C=C/c2ccc(O)cc2)nc2ccc(Br)cc2c1=O [G3iB, 6-bromo-2-[(E)-2-(4-hydroxyphenyl)ethenyl]-3-(2-methoxyphenyl)quinazolin-4(3H)-one] | > 50 | – | –
Cc1cc(NC(=O)CCC2Cc3ccccc3NC2=O)nc(-c2ccccc2)n1 (stereo not shown) [G3iD] | – | 40 ± 3.7 | –
O=C(Nc1cccc(Cl)c1)c1cccc(NC(=O)c2cccc([N+](=O)[O-])c2)c1 [G3iE, N-{3-[(3-chloroanilino)carbonyl]phenyl}-3-nitrobenzamide] | – | > 50 | –
Cc1cccnc1OC1CCN(c2cc(N3CCCC3CO)ncn2)CC1 (stereo not shown) [G3iC] | – | > 50 | –
Cc1ccccc1CN(Cc1nnc(C(C)(C)C)o1)c1ccc2nc(O)[nH]c2c1 [G3iF] | – | 24.7 ± 8.4 | –
CC(=O)Nc1ccc(S(=O)(=O)Nc2ccc(Nc3cc(N(C)C)nc(C)n3)cc2)cc1 [G3iA, N-(4-{[(4-{[6-(dimethylamino)-2-methylpyrimidin-4-yl]amino}phenyl)amino]sulfonyl}phenyl)acetamide] | – | 29.4 ± 6.3 | ~ fourfold
